Measured values taken from patent US8629164B2, “Inhibitors of NF-κB” (Profectus Biosciences, Inc., priority 2009, dated 2014).
“Also recorded” adds a separate entry of the source.

Tests used:
[1] = test system: human RPMI8226 multiple myeloma; test: RPMI8226 multiple myeloma xenograft in mice; type: in vivo
Procedure: Neither PS-341 (1 mg/kg iv days 1, 4/week×4 weeks) nor the compound of Example 2 (15 mg/kg ip QD×21) treatment achieved statistical significant tumor growth inhibition in this study as compared to vehicle treatment (P>0.10).
Several compounds have been assessed for efficacy studies in rodent disease models. We first sought to obtain in vivo efficacy of the compounds in multiple myeloma which has high incidence of constitutive activation of both the canonical and non-canonical pathways.

[2] = test system: collagen-induced arthritis; test: Mouse model of collagen-induced rheumatoid arthritis (CIA)
[3] = test system: NF-κB; test: 293-cell pNF-κB-luc reporter assay, TNF-α induced; type: cell-based; details: for EC50: HEK293 cells, NF-κB driven luciferase expression, read-out: 293/NFkB-luc EC50
Method in brief: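 HEK293 cells with stably integrated NF-κB reporters, pNF-κB-luc (3 elements) or pTRH1-NF-κB-dscGFP (4 elements). Cells pretreated 2 h with 0–40 μM compound, then stimulated with 20 ng/ml TNF-α for 18 h; luminescence or fluorescence read. Activity referenced to 0.5% DMSO control; median of three independent experiments.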

[4] = test system: NF-κB; test: NF-κB-dependent luciferase expression after IR in p65+/+ MEFs; details: 10 Gy IR
[5] = test system: MDA-MB-231 breast cancer cells; test: Cytotoxicity and radio-sensitization in MDA-MB-231 breast cancer cells; type: cell-based
[6] = test system: mouse embryonic fibroblasts (MEFs)
[7] = test system: NF-κB; test: NF-κB DNA binding activity of p65+/+ MEF nuclear extract after IR; details: p65+/+ MEFs
[8] = target: T1, p50 (Homo sapiens, UniProt P19838); test: TransAM NF-κB Family DNA Binding ELISA, p50; details: p50 binding IC50 (uM), cells without % sign
T1 sequence (P19838 1-433 limits assumed): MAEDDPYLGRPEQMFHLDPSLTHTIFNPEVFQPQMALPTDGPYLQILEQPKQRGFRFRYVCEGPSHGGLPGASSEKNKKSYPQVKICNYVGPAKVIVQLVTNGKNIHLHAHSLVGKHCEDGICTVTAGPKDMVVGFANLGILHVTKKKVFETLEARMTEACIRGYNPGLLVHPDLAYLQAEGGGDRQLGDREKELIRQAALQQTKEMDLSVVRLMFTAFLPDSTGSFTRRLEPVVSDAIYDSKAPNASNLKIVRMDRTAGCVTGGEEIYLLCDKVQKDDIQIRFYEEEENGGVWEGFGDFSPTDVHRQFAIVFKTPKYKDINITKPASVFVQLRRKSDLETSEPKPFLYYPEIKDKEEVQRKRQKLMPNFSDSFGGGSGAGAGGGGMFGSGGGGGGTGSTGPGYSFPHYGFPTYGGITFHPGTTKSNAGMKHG

[9] = test system: human peripheral blood mononuclear cells (hPBMCs); test: Cytotoxicity to hPBMCs (CellTiter-Glo); type: cell-based
Procedure: Human peripheral blood mononuclear cells (hPBMCs) were treated with example 1 or DHMEQ and the percentage of viable cells was assessed 24 hours post drug treatment. The graph represents the mean±the standard deviation of three replicate experiments.
The cytotoxicity profile of the compound of Example 1. The cytotoxicity of the compound of Example 1 was determined for human peripheral blood mononuclear cells (hPBMCs). As with the activity assay, the hPBMCs were treated with 0, 0.2, 1, 10, 20 and 40 μM of the compound of Example 1 for 2 hours, and then induced with 20 ng/ml TNF-α for 48 hours. The number of viable cells was determined using CellTiter-Glo luminescent cell viability assay (Promega (cat #G7573)). […] The selectivity index (the ratio of cytotoxicity CC50 to inhibitory IC50) is assigned to the compound of Example 1.

[10] = test system: COX-2 expression; test: LPS-induced COX-2 expression in RAW264.7 cells; type: cell-based, mouse; details: pretreatment, at 6 to 12 h
Description: LPS stimulation induces the expression of COX-2 the enzyme responsible for prostaglandin E2.

[11] = test system: soluble IL-2Rα; test: Soluble IL-2Rα expression in PHA-P activated hPBMCs; type: cell-based, human; details: 10 μM, three days
Procedure: The graph is the mean of 2 independent experiments.
Soluble IL-2Rα is transcriptionally regulated by NF-κB. […] Human PBMCs were treated with 0, 0.2, 1, 10, 20 and 40 μM of the compound of Example 1 concurrent with PHA-P activation. The cells were cultured for an additional three days and media was harvested for marker assessment.

[12] = test system: IL-6 secretion from MDA-MB-231 cells; test: IL-6 secretion from MDA-MB-231 cells; type: cell-based
Procedure: (§1) Specifically, A and B show the effects of the compound of Example 1 on IL-6 and IL-8 secretion from MDA-MB-231 cells stimulated by 20 ng/mL TNF-α. The cells were treated with the indicated concentrations of the compound of Example 1 for 2 hours, and then TNF-α was added and incubation continued for 4 hours.

[13] = test system: IL-8 secretion from MDA-MB-231 cells; test: IL-8 secretion from MDA-MB-231 cells; type: cell-based
Procedure: as §1

[14] = 20 μM, TNF-α 20 ng/mL, MDA-MB-231

O=C(NC1=CC(=O)C2OC2C1O)c1cc2ccccc2nc1O (racemic) [Example 2, (±)-2-hydroxy-N-(2-hydroxy-5-oxo-7-oxabicyclo[4.1.0]hept-3-en-3-yl)quinoline-3-carboxamide]
RPMI8226 tumor growth reduction ([1]; Example 2 15 mg/kg ip QD×21, xenograft mice, 15 mg/kg): same level of tumor growth reduction as PS-341; also recorded: reduced RPMI8226 tumor growth | tolerability in xenograft model ([1]; mouse, in vivo): better tolerated than PS-341 | anti-inflammation effects vs vehicle treated group ([2]; Example 2 15 mg/kg s.c. qd 21-35, etanercept 50 ug/mouse ip qd 21-35, P<0.05): statistal significant anti-inflammation effects | hind paw erythema and swelling (arthritis index score) ([2]; daily d21-d35): significantly reduced | histological evaluation of joints ([2]; day 35): significant reduction of inflammation | myeloperoxidase activities ([2]; mouse, in vivo): concomitant reduction | tolerability of efficacious doses in mice ([2]; mouse, in vivo): well tolerated | EC50 [3]: 4.1 µM | NF-κB-dependent luciferase expression after IR [4]: reduced luciferase gene transcription significantly; also recorded: significantly reduced luciferase expression | enhancement of radiation effect ([5]; 0.2 μM, MDA-MB-231): 1.5 fold | LD50 of IR + compound ([5]; 0.2 μM, MDA-MB-231, IR alone 2.55 Gy): 1.66 Gy | LD50, single agent cytotoxic effect ([5]; MDA-MB-231 cells): 0.4 µM | cytotoxicity to MEFs ([6]; 1.4 μM): non-cytotoxic | radio-sensitivity of PARP-1+/+ MEFs to IR ([6]; 1.4 μM): increased radio-sensitivities | LD50 of IR + compound ([6]; p65+/+ MEFs, 1.4 μM, IR alone 2.3 Gy): 1.5 Gy | radio-sensitization of p65−/− MEFs ([6]; p65−/− MEFs): no further effect | nuclear extract NF-κB DNA binding activities after IR [7]: significantly decreased | IC50 [8]: 2.1 µM

O=C(NC1=CC(=O)C2OC2C1O)c1cccnc1O (racemic) [Example 1, (±)-2-hydroxy-N-(2-hydroxy-5-oxo-7-oxabicyclo[4.1.0]hept-3-en-3-yl)nicotinamide]
selectivity (cytotoxicity CC50 to inhibitory IC50) compared to DHMEQ [9]: greater selectivity | cytotoxicity to hPBMCs ([9]; up to 40 μM tested): little detectable toxicity; also recorded: little cytotoxic effect | LPS-induced COX-2 expression [10]: strong inhibition | effect on sIL-2Rα [11]: statistically significant affect | IC50 ([3]; 2 hours pre-treatment, 20 ng/ml TNF-α 18 hours, median of three experiments ± standard error, read-out: median IC50, expression of the luciferase gene): 16.2 ± 1.1 µM | EC50 [3]: 6.2 µM | IL-6 secretion, TNF-α stimulated [12, 14]: completely inhibited | inhibition of constitutive IL-6 secretion ([12]; MDA-MB-231, unstimulated): dose-dependent manner | IL-8 secretion, TNF-α stimulated [13, 14]: completely inhibited | inhibition of constitutive IL-8 secretion ([13]; MDA-MB-231, unstimulated): dose-dependent manner | IC50 [8]: 26 µM
